Consider 2 molecules from patent publication US11998606B2, “Compounds and methods for selective proteolysis of glucocorticoid receptors” (Board of Regents, The University of Texas System, priority 2018, dated 2024).

Where “and” joins values, the source holds several entries; their conditions need not be identical. Identical values can stand only once. Like-named read-outs stand apart in the source and are kept apart here.

A word on the AUC(0-t): it is the area under the concentration-time curve up to a stated or last time point. Broadly, the Cmax is the peak of the concentration-time curve. A word on the Tmax: it is the time at which the peak concentration occurs.

A short description of data set [1]: Single dose intraperitoneal pharmacokinetics in CD-1 mice, plasma concentration by HPLC-MS. In kind it is in vivo. The procedure:
The intraperitoneal bioavailability was determined in the following study: three CD-1 female mice were dosed by intraperitoneal injection (10 mg/kg) and plasma collected at the following hourly time points (0.083, 0.25, 0.5, 1, 2, […] and 24h). Plasma concentration was determined by HPLC-MS.
Table 1 illustrates pharmacokinetic properties of the Example 3 compound in CD-1 mice (n=3) after a single intraperitoneal dose of 10 mg/kg.

In the next data set the test system is PC3 cells. The data set can be described thus: PC3 cell line clonogenic (colony formation) assay. In kind it is cell-based. The conditions noted are these: 3.3 μM or 10 μM, 10-14 days, versus DMSO control. On the procedure: PC3 cells are routinely maintained in RPMI 1640 media. Cell growth is determined using crystal violet staining. Cells are initially seeded at density of 1000 to 2000 cells per well in 6-well plates. 24 hours post-seeding, cells are treated with DMSO control, enzalutamide, RU-486 or various GR degraders at 3.3 μM or 10 μM concentration. Cells are allowed to grow under regular growth conditions for 10-14 days. Cells are then fixed with 80% MeOH and stained with crystal violet solution (0.05%) overnight. Plates are then washed in water, dried and scanned.

The next data set has as its system DU145 cells. The data set can be described thus: DU145 cell line proliferation assay (Incucyte confluency). It counts as cell-based. The conditions noted are these: 1 μM, 3.3 μM or 10 μM, 5 days, versus DMSO control. The procedure:
DU145 cells are routinely maintained in RPMI 1640 media. Proliferation is determined using a real time cell imaging device, Incucyte. Cells are initially seeded at density of 2000 cells per well in 96-well plates. 24 hours post-seeding, cells are treated with DMSO control or GR degraders at 1 μM, 3.3 μM or 10 μM concentration. Cells are allowed to grow under regular growth conditions for 5 days while being monitored and imaged every four hours by Incucyte. Confluency of cells, a surrogate for proliferation, is calculated and plotted.

The test system of data set [2] is VCaP prostate cancer cells. The data set can be described thus: In vivo anti-tumor efficacy, VCaP castration resistant prostate cancer xenograft model. The conditions noted are these: castrated CB17 SCID mice, Example 3 100 mg/kg + enzalutamide 10 mg/kg IP once daily. Also on record: species or system Male CB17 SCID Mice. The procedure:
1×10^7 VCaP cells were injected into the flanks of male CB17 SCID Mice. Tumor take was monitored visually and by palpation bi-weekly. Once tumors reached 200 mm^3 mice were castrated. Once tumors stopped shrinking, mice were randomized into control and different treatment groups for 26 days. Treatment cohorts are as follows: • a. Vehicle is 5% Cremophor: 5% Ethanol in saline, (n=10 animals) • b. GR degrader example #3 (100 mg/kg) IP once daily in 5% Cremophor: 5% Ethanol in saline (n=10 animals) • c. Enzalutamide (10 mg/kg) IP once daily in 5% Cremophor: 5% Ethanol in saline (n=10 animals) • d. GR degrader example #3 (100 mg/kg)+Enzalutamide (10 mg/kg) IP once daily in 5% Cremophor: 5% Ethanol in saline (n=10 animals)
Tumor diameter and volume were calculated based on caliper measurements of tumor length and […] using the formula tumor volume=(length×width^2)/2. Tumor volume and body weight were measured three times a week.

Data set [3] concerns TRAMP-C1 prostate cancer cells. The data set can be described thus: In vivo anti-tumor efficacy, TRAMP-C1 tumors in immunocompetent mice. Also noted: species or system male C57/Bl6 mice. The conditions noted are these: C57/Bl6 mice, Example 3 100 mg/kg + anti-PD1 antibody 200 μg IP once daily, 7 days. On the procedure:
TRAMP-C1 cells (5×10^6) were injected into the flanks of male C57/Bl6 mice. Tumor take was monitored visually and by palpation bi-weekly. Once tumors reached 200 mm^3 mice were randomized into control and different treatment groups for 7 days. Treatment cohorts are as follows: • a. Vehicle is 5% Cremophor: 5% Ethanol in saline, (n=10 animals) • b. GR degrader Example #3 (100 mg/kg) IP once daily in 5% Cremophor: 5% Ethanol in saline (n=10 animals) • c. Anti-PD1 antibody, clone RMP1-14 (200 μg) IP once daily in 5% Cremophor: 5% Ethanol in saline (n=10 animals) • d. GR degrader Example #3 (100 mg/kg)+Anti-PD1 antibody (200 μg) IP once daily in 5% Cremophor: 5% Ethanol in saline (n=10 animals)
Tumor diameter and volume were calculated based on caliper measurements of tumor length and […] using the formula tumor volume=(length×width^2)/2. Tumor volume and body weight were measured three times.

Data set [4] is described as follows: Single dose intraperitoneal pharmacokinetics in CD-1 mice, plasma concentration by HPLC-MS. It counts as in vivo. The conditions noted are these: 10 mg/kg IP.
Where [5] appears, read: female, mouse, ip, CD-1 mice (n=3), single intraperitoneal dose of 10 mg/kg.

Regarding `CC#C[C@]1(O)CC[C@H]2[C@@H]3CCC4=CC(=O)CCC4=C3[C@@H](c3ccc(N(C)CCCC(=O)N4CCN(C(=O)OC(C)(C)C)CC4C(=O)N4CCN(C(=O)OC(C)(C)C)CC4C(=O)NCCCOCCOCCOCCCNc4cccc5c4C(=O)N(C4CCC(=O)NC4=O)C5=O)cc3)C[C@@]21C` (stereo partly drawn) [Example 3, tert-Butyl-4-(4-(tert-butoxycarbonyl)-1-(4-((4-((8S,11R,13S,14S,17S)-17-hydroxy-13-methyl-3-oxo-17-(prop-1-yn-1-yl)-2,3,6,7,8,11,12,13,14,15,16,17-dodecahydro-1H-cyclopenta[a]phenanthren-11-yl)phenyl)(methyl)amino)butanoyl)piperazine-2-carbonyl)-3-((3-(2-(2-(3-((2-(2,6-dioxopiperidin-3-yl)-1,3-dioxoisoindolin-4-yl)amino)-propoxy)ethoxy)ethoxy)propyl)carbamoyl)piperazine-1-carboxylate], the concentration at 0.5 h was 72.2 nM and 135 nM in data set [1] (0.083 hr, 10 mg/kg IP, CD-1 mice, individual animals, 10 mg/kg, read-out: Individual concentration); 283 nM and 93 nM and 173 nM in data set [1] (0.25 hr, 10 mg/kg IP, CD-1 mice, individual animals, 10 mg/kg, read-out: Individual concentration); 652 nM and 939 nM in data set [1] (0.5 hr, 10 mg/kg IP, CD-1 mice, individual animals, 10 mg/kg, read-out: Individual concentration); 1010 nM and 147 nM and 358 nM in data set [1] (1 hr, 10 mg/kg IP, CD-1 mice, individual animals, 10 mg/kg, read-out: Individual concentration); 1480 nM and 2870 nM in data set [1] (2 hr, 10 mg/kg IP, CD-1 mice, individual animals, 10 mg/kg, read-out: Individual concentration); 505 nM and 617 nM in data set [1] (24 hr, 10 mg/kg IP, CD-1 mice, individual animals, 10 mg/kg, read-out: Individual concentration). The concentration at 0.5 h in data set [1] (female, CD-1, mouse, ip, 10 mg/kg, 0.5 hr, 10 mg/kg IP, CD-1 mice, individual animals, read-out: Individual concentration) amounted to 727 nM; in data set [1] (female, CD-1, mouse, ip, 10 mg/kg, 0.5 hr, 10 mg/kg IP, CD-1 mice, n=3, read-out: Mean concentration) it was 773 nM. The concentration at 0.083 h in data set [1] (female, CD-1, mouse, ip, 10 mg/kg, 0.083 hr, 10 mg/kg IP, CD-1 mice, individual animals, read-out: Individual concentration) came out at 114 nM; in data set [1] (female, CD-1, mouse, ip, 10 mg/kg, 0.083 hr, 10 mg/kg IP, CD-1 mice, n=3, read-out: Mean concentration), 107 nM. The same molecule registered a concentration at 0.25 h in data set [1] (female, CD-1, mouse, ip, 10 mg/kg, 0.25 hr, 10 mg/kg IP, CD-1 mice, n=3) of 183 nM. In data set [1] (female, CD-1, mouse, ip, 10 mg/kg, 1 hr, 10 mg/kg IP, CD-1 mice, n=3), this molecule showed a concentration at 1 h of 505 nM. Besides, the concentration at 2 h in data set [1] (female, CD-1, mouse, ip, 10 mg/kg, 2 hr, 10 mg/kg IP, CD-1 mice, individual animals, read-out: Individual concentration) turned out to be 2240 nM; in data set [1] (female, CD-1, mouse, ip, 10 mg/kg, 2 hr, 10 mg/kg IP, CD-1 mice, n=3, read-out: Mean concentration) it was 2200 nM. For the same molecule, the concentration at 4 h in data set [1] (female, CD-1, mouse, ip, 10 mg/kg, 10 mg/kg IP, CD-1 mice, individual animals, read-out: Individual concentration) was 3300 nM; in data set [1] (female, CD-1, mouse, ip, 10 mg/kg, 10 mg/kg IP, CD-1 mice, n=3, read-out: Mean concentration) it was 3240 nM. Besides, the concentration at 24 h in data set [1] (female, CD-1, mouse, ip, 10 mg/kg, 24 hr, 10 mg/kg IP, CD-1 mice, individual animals, read-out: Individual concentration) was found to be 440 nM; in data set [1] (female, CD-1, mouse, ip, 10 mg/kg, 24 hr, 10 mg/kg IP, CD-1 mice, n=3, read-out: Mean concentration), 521 nM. Moreover, the area under the curve AUC(0-t) in data set [1] (setting [5]) is 46.2 µM·h. In data set [1] (setting [5]), this molecule gave a peak concentration (Cmax) of 3240 nM. The time to peak (Tmax) in data set [1] (setting [5]) came to 4 h. Moreover, in the data set with PC3 cells, the “Colony formation (crystal violet staining)” value was “inhibited colony formation”. For the same molecule, the “Proliferation (confluency)” value in the data set with DU145 cells is reported as “displays efficacy against DU145 cancer cells”. Besides, the “Xenograft tumor growth, combination with enzalutamide” value in data set [2] was “synergizes with enzalutamide to inhibit growth of prostate cancer”. Also, in data set [3], the “Tumor growth, combination with anti-PD1 antibody” value is on record as “synergizes with anti-PD1 antibody to inhibit growth of prostate cancer”. For the same molecule, the concentration at 8 h is 3220 nM and 3210 nM in data set [4] (4 hr, individual animals, read-out: Individual concentration); 2980 nM and 2610 nM in data set [4] (8 hr, individual animals, read-out: Individual concentration); 2900 nM in data set [4] (female, CD-1, mouse, ip, 10 mg/kg, 8 hr, individual animals, read-out: Individual concentration); 2830 nM in data set [4] (female, CD-1, mouse, ip, 10 mg/kg, 8 hr, n=3, read-out: Mean concentration).
Regarding `CNC(=O)c1ccc(N2C(=S)N(c3ccc(C#N)c(C(F)(F)F)c3)C(=O)C2(C)C)cc1F` [enzalutamide, reference compound], in the data set on PC3 cells, the “Colony formation (crystal violet staining)” value was “did not differ significantly from control”. Moreover, the “Proliferation (confluency)” value in the data set on DU145 cells is given as “did not differ significantly from control”.
